For this experiment, the system named is C. neoformans. The experiment can be described thus: second in vivo assay, survival of mice infected with C. neoformans. Details: species or system C. neoformans in ICR mice. To be noted: 5 mg/kg subcutaneous BID. Here is the method: Ten immunocompetent ICR mice weighing 30 g each in two groups were inoculated intravenously with 255 colony forming units of Cryptococcus neoformans (isolate NIH C-1) per mouse.
A second in vivo assay was conducted as in Example VI with the exception that infection was with 488 colony forming units of C. neoformans, and that the test compound was administered 5 mg/kg, subcutaneous, BID.

As to `COCCOCCOCCOCCOCCOCCNC(=O)[C@H]1[C@@H]2C[C@@H](O[C@@H]3O[C@H](C)[C@@H](O)[C@H](N)[C@@H]3O)/C=C/C=C/C=C/C=C/C=C/C=C/C=C/[C@H](C)[C@@H](O)[C@@H](C)[C@H](C)OC(=O)C[C@H](O)C[C@H](O)CC[C@@H](O)[C@H](O)C[C@H](O)C[C@](O)(C[C@@H]1O)O2` [Example II], the percent survival reads like this: (day 11 post-infection) 100%; (day 12 post-infection) 80%; (day 13 post-infection) 60%; (day 14 post-infection) 60%; (day 15 post-infection) 60%; (day 16 post-infection) 60%. Also, the percent survival runs as follows: (day 17 post-infection) 60%; (day 19 post-infection) 60%; (day 20 post-infection) 60%; (day 21 post-infection) 60%; (day 22 post-infection) 60%; (day 23 post-infection) 40%. Besides, the percent survival is 20% (day 24 post-infection); 20% (day 27 post-infection); 10% (day 28 post-infection); 10% (day 29 post-infection); 0% (day 30 post-infection).

(Values after US5606038A, “Amphiphilic polyene macrolide antibiotic compounds” (Competitive Technologies, Inc., priority 1995, dated 1997).)
